Numbers after ± are expanded uncertainties.
Assay: molar heat capacity at constant pressure
Conditions: Liquid, Small sample (50 mg) DSC

CCCCCCn1cc[n+](C)c1.F[B-](F)(F)F [1-hexyl-3-methylimidazolium tetrafluoroborate]
molar heat capacity at constant pressure [J/K/mol]
Conditions | 283.15 K | 288.15 K | 293.15 K | 298.15 K | 303.15 K | 308.15 K | 313.15 K | 318.15 K | 323.15 K
100 kPa | 422.77 ± 6.5 | 425 ± 6.6 | 427.34 ± 6.6 | 429.8 ± 6.7 | 432.36 ± 6.7 | 435.03 ± 6.7 | 437.81 ± 6.8 | 440.7 ± 6.8 | 443.69 ± 6.9
2000 kPa | 422.81 ± 6.5 | 425.04 ± 6.6 | 427.38 ± 6.6 | 429.83 ± 6.7 | 432.39 ± 6.7 | 435.06 ± 6.7 | 437.84 ± 6.8 | 440.72 ± 6.8 | 443.72 ± 6.9
4000 kPa | 422.85 ± 6.5 | 425.08 ± 6.6 | 427.42 ± 6.6 | 429.87 ± 6.7 | 432.43 ± 6.7 | 435.1 ± 6.7 | 437.87 ± 6.8 | 440.75 ± 6.8 | 443.74 ± 6.9
6000 kPa | 422.89 ± 6.5 | 425.12 ± 6.6 | 427.46 ± 6.6 | 429.91 ± 6.7 | 432.47 ± 6.7 | 435.13 ± 6.7 | 437.9 ± 6.8 | 440.78 ± 6.8 | 443.77 ± 6.9
8000 kPa | 422.94 ± 6.5 | 425.17 ± 6.6 | 427.5 ± 6.6 | 429.95 ± 6.7 | 432.5 ± 6.7 | 435.17 ± 6.7 | 437.93 ± 6.8 | 440.81 ± 6.8 | 443.8 ± 6.9
10000 kPa | 422.98 ± 6.5 | 425.21 ± 6.6 | 427.54 ± 6.6 | 429.99 ± 6.7 | 432.54 ± 6.7 | 435.2 ± 6.7 | 437.97 ± 6.8 | 440.84 ± 6.8 | 443.82 ± 6.9
12000 kPa | 423.02 ± 6.5 | 425.25 ± 6.6 | 427.59 ± 6.6 | 430.03 ± 6.7 | 432.58 ± 6.7 | 435.23 ± 6.7 | 438 ± 6.8 | 440.87 ± 6.8 | 443.85 ± 6.9
14000 kPa | 423.07 ± 6.5 | 425.29 ± 6.6 | 427.63 ± 6.6 | 430.07 ± 6.7 | 432.61 ± 6.7 | 435.27 ± 6.7 | 438.03 ± 6.8 | 440.9 ± 6.8 | 443.88 ± 6.9
20000 kPa | 423.2 ± 6.6 | 425.42 ± 6.6 | 427.75 ± 6.6 | 430.18 ± 6.7 | 432.72 ± 6.7 | 435.37 ± 6.7 | 438.13 ± 6.8 | 440.99 ± 6.8 | 443.96 ± 6.9
30000 kPa | 423.41 ± 6.6 | 425.63 ± 6.6 | 427.95 ± 6.6 | 430.38 ± 6.7 | 432.91 ± 6.7 | 435.55 ± 6.8 | 438.29 ± 6.8 | 441.14 ± 6.8 | 444.09 ± 6.9
40000 kPa | 423.63 ± 6.6 | 425.84 ± 6.6 | 428.15 ± 6.6 | 430.57 ± 6.7 | 433.09 ± 6.7 | 435.72 ± 6.8 | 438.45 ± 6.8 | 441.28 ± 6.8 | 444.22 ± 6.9
50000 kPa | 423.85 ± 6.6 | 426.05 ± 6.6 | 428.36 ± 6.6 | 430.77 ± 6.7 | 433.28 ± 6.7 | 435.89 ± 6.8 | 438.61 ± 6.8 | 441.43 ± 6.8 | 444.35 ± 6.9
60000 kPa | 424.07 ± 6.6 | 426.26 ± 6.6 | 428.56 ± 6.6 | 430.96 ± 6.7 | 433.46 ± 6.7 | 436.07 ± 6.8 | 438.77 ± 6.8 | 441.58 ± 6.8 | 444.49 ± 6.9

CCCCCCCC[n+]1ccn(C)c1.F[B-](F)(F)F [1-methyl-3-octylimidazolium tetrafluoroborate]
molar heat capacity at constant pressure [J/K/mol]
Conditions | 283.15 K | 288.15 K | 293.15 K | 298.15 K | 303.15 K | 308.15 K | 313.15 K | 318.15 K | 323.15 K
100 kPa | 489.23 ± 7.6 | 493.12 ± 7.6 | 496.79 ± 7.7 | 500.26 ± 7.8 | 503.51 ± 7.8 | 506.55 ± 7.8 | 509.38 ± 7.9 | 512 ± 7.9 | 514.41 ± 8
2000 kPa | 489.23 ± 7.6 | 493.12 ± 7.6 | 496.79 ± 7.7 | 500.25 ± 7.8 | 503.5 ± 7.8 | 506.55 ± 7.8 | 509.38 ± 7.9 | 512 ± 7.9 | 514.41 ± 8
4000 kPa | 489.23 ± 7.6 | 493.12 ± 7.6 | 496.79 ± 7.7 | 500.25 ± 7.8 | 503.5 ± 7.8 | 506.54 ± 7.8 | 509.37 ± 7.9 | 512 ± 7.9 | 514.41 ± 8
6000 kPa | 489.24 ± 7.6 | 493.11 ± 7.6 | 496.78 ± 7.7 | 500.24 ± 7.8 | 503.5 ± 7.8 | 506.54 ± 7.8 | 509.37 ± 7.9 | 512 ± 7.9 | 514.41 ± 8
8000 kPa | 489.24 ± 7.6 | 493.11 ± 7.6 | 496.78 ± 7.7 | 500.24 ± 7.8 | 503.49 ± 7.8 | 506.53 ± 7.8 | 509.37 ± 7.9 | 512 ± 7.9 | 514.41 ± 8
10000 kPa | 489.24 ± 7.6 | 493.11 ± 7.6 | 496.78 ± 7.7 | 500.24 ± 7.8 | 503.49 ± 7.8 | 506.53 ± 7.8 | 509.37 ± 7.9 | 511.99 ± 7.9 | 514.41 ± 8
12000 kPa | 489.24 ± 7.6 | 493.11 ± 7.6 | 496.78 ± 7.7 | 500.23 ± 7.8 | 503.48 ± 7.8 | 506.53 ± 7.8 | 509.36 ± 7.9 | 511.99 ± 7.9 | 514.42 ± 8
14000 kPa | 489.24 ± 7.6 | 493.11 ± 7.6 | 496.77 ± 7.7 | 500.23 ± 7.8 | 503.48 ± 7.8 | 506.52 ± 7.8 | 509.36 ± 7.9 | 511.99 ± 7.9 | 514.42 ± 8
20000 kPa | 489.24 ± 7.6 | 493.11 ± 7.6 | 496.76 ± 7.7 | 500.22 ± 7.8 | 503.47 ± 7.8 | 506.51 ± 7.8 | 509.35 ± 7.9 | 511.99 ± 7.9 | 514.42 ± 8
30000 kPa | 489.25 ± 7.6 | 493.1 ± 7.6 | 496.75 ± 7.7 | 500.2 ± 7.8 | 503.45 ± 7.8 | 506.49 ± 7.8 | 509.34 ± 7.9 | 511.98 ± 7.9 | 514.43 ± 8
40000 kPa | 489.26 ± 7.6 | 493.09 ± 7.6 | 496.73 ± 7.7 | 500.18 ± 7.8 | 503.42 ± 7.8 | 506.47 ± 7.8 | 509.32 ± 7.9 | 511.98 ± 7.9 | 514.44 ± 8
50000 kPa | 489.26 ± 7.6 | 493.09 ± 7.6 | 496.72 ± 7.7 | 500.16 ± 7.8 | 503.4 ± 7.8 | 506.45 ± 7.8 | 509.31 ± 7.9 | 511.97 ± 7.9 | 514.44 ± 8
60000 kPa | 489.27 ± 7.6 | 493.08 ± 7.6 | 496.7 ± 7.7 | 500.14 ± 7.8 | 503.38 ± 7.8 | 506.43 ± 7.8 | 509.3 ± 7.9 | 511.97 ± 7.9 | 514.45 ± 8

Source: the NIST ThermoML archive (doi:10.1021/je9004992)
